Results published in patent publication US6344442B2, “Zona pellucida proteins for contraception” (Schering Aktiengesellschaft, priority 1996, dated 2002).

How the values were obtained:
Type in all cases: cell-based
[1] = tested on: mouse zona pellucida (bonding of mouse sperm); experiment: Zona pellucida bonding test in mice (sperm bonding to isolated zonae); settings: 20 sperm bonds per zona corresponds to 100%
Protocol: (§1) To recover sperm, a mouse buck is sacrificed, and the two epididymal appendages are removed and transferred into the prepared small Petri dishes [see above under b)]. The tissue parts are cut in the medium, so that the sperm can escape. The sperm are capacitated for one hour in the incubator. After the capacitation time has been completed, the sperm are diluted 1:5 with BWW/0.3 BSA. For counting in the counting chamber, a 1:1 aliquot is diluted with doubly distilled H2O. The desired sperm concentration is 40,000-80,000/0.1 ml.
(§2) The animals are sacrificed 13 hours after the HCG injection, and the tubes are removed and transferred into the prepared small Petri dishes [see above under a)]. Pending further processing, the small dishes are kept at 37° C. on the warming plate. Under the stereomicroscope, the tubes that are in oil are pulled apart. In this case, the cumulus clouds pour out, which then are transferred into the prepared medium drops (two cumulus clouds per drop).
The sperm and oocytes are obtained as described in in vitro fertilization.
The oocytes that are obtained as under I.2.3. are taken up by a finely drawn Pasteur pipette, whose diameter must be somewhat smaller than the diameter of the oocytes, with a few μl of BWW medium. This process is repeated several times and finally causes the zonae pellucida to burst. The cytoplasmic portion of the ooctyes is released, and the isolated zona pellucida is collected for further tests and covered in 0.1 ml of BWW medium with equilibrated oil and kept at 37° C.
The capacitated mouse sperm (see I.2.2) are preincubated for 15 minutes either with a solvent or the desired substance, and then 0.1 ml drops are added to the isolated zonae pellucidae, in such a way that the incubation volume is a total of 0.2 ml (under oil). About 20 zonae pellucidae are studied per drop. The sperm concentration per drop is between 10,000 and 30,000 per μl. Sperm and zonae are incubated for 45 minutes in an incubator (see Description under I.2). After the incubation period, the number of bonded sperm per zona is evaluated under an inverse microscope. The upper limit of the sperm, which have yet to be counted exactly, is 20 sperm per zona pellucida under control conditions.
10,000 Sperm per 0.01 ml with 20 sperm bonds per zonae corresponds to 100%

sperm = experiment: Sperm movement parameters
capacitated human sperm = experiment: Acrosome reaction in capacitated human sperm
[2] = tested on: human zona pellucida (bonding of human sperm); experiment: Zona pellucida bonding test in humans (hemizona); settings: 4 hours at 37° C.
Protocol: For the zona bonding test in humans, the ejaculate of normo-zoospermatocidal donor semen is prepared with use of SpermFertil^(R) glass wool columns (Mello Ltd., FRG). The filtrates were washed and resuspended in HFT-HSA (HFT=human tubal fluid medium according to Quinn et al., supplemented with 10 mg/ml of human serum albumin=HSA).
All human oocytes are obtained from post mortem material. Provision is made at all times to ensure that all legal, ethical and moral guidelines during the entire process are strictly followed.
Unless otherwise indicated, the oocytes are stored in 36.6 mmol of HEPES buffer, pH 7.4, which contains […] MgCl2 and 0.1% PVP at 4° C.
The experiments consist of three incubation drops that contain 10 μl of a standard HTF-HSA medium (see above) and 40 μl of working medium (see below). A specific number of oocytes (for TEM) or hemizonae for the bonding was added to each drop to ensure bonding. For the bonding experiments, a 10 μl sperm drop (50×10^6/ml) was added to each drop, covered with mineral oil, and incubated for 4 hours at 37° C. in 5% CO2. The statistical evaluation was done according to the non-parametric Mann-Whitney two-sample test.
Composition of the working medium: 20 μl of 5 mmol NaH2PO4 (adjusted with phosphoric acid), pH 2.5, plus 20 μl of a specially composed doubly-concentrated HTF-HSA medium, mixed at a ratio of 1:1 (vol/vol).
Composition of the doubly-concentrated HTF-HSA medium: […]

[3] = tested on: mouse oocytes and sperm (in vitro fertilization); experiment: Mouse in vitro fertilization; settings: 24 hours incubation
From the text: I. In Vitro Fertilization
In vitro fertilization represents a test system that makes possible a first review of a contraceptive effect of substances. In this case, the possibility exists of studying whether the contraceptive effect can be attributed primarily to an inhibition of the sperm function(s) or to an inhibiting effect on the oocytes, or to the two above-mentioned effects.
Fertile female mice (CB6F1 strain) about 12 weeks of age; fertile male mice (CB6F1 strain) at least 14 weeks of age.
c) 0.1 ml of BWW/0.3% BSA, corresponding to the concentrations that are to be tested, is mixed with or without substance (control) for the fertilization (prepared after removal of the tubes), covered with equilibrated oil, and kept at 37° C.
10 injection units of PMS/0.1 ml are injected intrapericutaneously into the approximately 12-week-old fertile mice, and 54 hours later, 10 injection units of HCG/0.1 ml are administered.
as §1, §2
0.1 ml of dilute sperma-defined concentration is added to the oocytes that are in the medium drops and is incubated for 24 hours in the incubator at 37° C.
After incubating for 24 hours in the incubator, the following parameters are computed:
The fertilization rate corresponds to the number of divided oocytes per total number of intact oocytes.

Substance	% Inhibition of Sperm Bonding (Mouse) to the Mouse Zona Pellucida ([1]; 1 μg/ml peptide) [%]	% Inhibition of Sperm Bonding (Mouse) to the Mouse Zona Pellucida ([1]; 10 μg/ml peptide) [%]	influence on parameters of the sperm movement (sperm)	triggering of the acrosome reaction (capacitated human sperm)	% Inhibition of Sperm Bonding (Human) to the Human Zona Pellucida ([2]; 1 μg/ml peptide) [%]	% Inhibition of Sperm Bonding (Human) to the Human Zona Pellucida ([2]; 10 μg/ml peptide) [%]	% Inhibition of Sperm Bonding (Mouse) to the Mouse Zona Pellucida ([1]; 0.1 μg/ml peptide) [%]	% Inhibition of Sperm Bonding (Mouse) to the Mouse Zona Pellucida ([1]; 100 μg/ml peptide) [%]	% Inhibition of Mouse In Vitro Fertilization ([3]; 0.1 μg/ml peptide) [%]	% Inhibition of Mouse In Vitro Fertilization ([3]; 1 μg/ml peptide) [%]	% Inhibition of Mouse In Vitro Fertilization ([3]; 10 μg/ml peptide) [%]
Ac-QRPGHIQFQS-NH2 [Ac-QRPGHIQFQS-NH2 (reverse), reference compound]	0	0									
NH2-RYPRQGNVSS-COOH (H-RYPRQGNVSS-OH) [human ZPC (ZP3) peptide, residues 141-150]		89	does not influence any parameters of the sperm movement	do not trigger the acrosome reaction	76	77	71	91			
NH2-SQFQIHGPRQ-COOH (H-SQFQIHGPRQ-OH)	61	72							52	29	1
NH2-TRRCRTASHPVSASE-COOH (H-TRRCRTASHPVSASE-OH) [human ZPC (ZP3) peptide, residues 410-424]		87			61	88	86				
NH2-TPT..PDQNASPY-COOH (H-TPTPDQNASPY-OH) [human ZPC (ZP3) peptide, residues 220-230]					0	18					
Ac-CGTPSHSRRQPHVMS-NH2 [human ZPC (ZP3) peptide, residues 327-341]				do not trigger the acrosome reaction	45	88					
Ac-SQFQIHGPRQ-NH2									0	63	5
NH2-SRNRRHVTEEADVT-COOH (H-SRNRRHVTEEADVT-OH) [human ZPC (ZP3) peptide, residues 348-361]		85			0	0	69	82			
